# Results as given in patent US6525027B2, “Use of ribose supplementation for increasing muscle mass and decreasing body fat in humans” (Bioenergy Inc., priority 2000, dated 2003).
# “And” between values parts separate entries of the source, which are not always exact repeats. Equal values may be shown once.
# How the values were obtained:
# Assay type in all cases: in vivo, humans
# [1] = Change in body weight after 10 weeks of training; details: placebo group remained the same
# Procedure: (§1) The study subjects were healthy males, ages 18 to 40, with previous weight training experience. […] Pages 111-112.
# (§2) The duration of the study was 10 weeks and included a supplementation regime of D-Ribose or D-Glucose as placebo control, combined with resistance weight training. The subjects were divided into two matched groups, four subjects received D-Ribose and two subjects received placebo.
# (§3) Baseline testing was conducted before training and supplementation. Prior to any testing the subjects were required to read and sign an informed consent document. Subject information to be collected prior to the start of the exercise regimen included age, height, weight, body composition and performance measures. The body composition was determined by hydrostatic weighing and skinfold measurements to determine beginning percentage muscle mass and percentage body fat.
# (§4) There were four training sessions per week. At each training session, the subject was accompanied by a supervisor to ensure proper lifting technique, safety and efficiency of the training session. D-Ribose or placebo at a dose of 5 gm was taken one-half hour before and one-half after the training session. On the three days per week when the subjects were not trained, the subjects were allowed to consume the supplement at their convenience. […]
# [2] = Performance measures: maximum weight lifted once (1RM), bench press and squat, after 10 weeks of training
# Text: as §1, §2
# Initial performance measures were individualized to each subject. The maximum weight each subject could lift once (1RM) was determined for the bench press and the squat lift. The maximal repetitions that each subject was able to lift of their own body weight was determined. Each subject performed as many repetitions as possible, followed by a one-minute rest and then repeated. The sets were continued until no weight could be lifted, limited by a maximum of 10 sets.
# as §4
# [3] = Skinfold test, % body fat, before and after 10 weeks of weight training with supplementation
# Procedure: as §1, §2, §3
# (§5) There were four training sessions per week. At each training session, the subject was accompanied by a supervisor to ensure proper lifting technique, safety and efficiency of the training session. D-Ribose or placebo at a dose of 5 gm was taken one-half hour before and one-half after the training session. On the three days per week when the subjects were not trained, the subjects were allowed to consume the supplement at their convenience. Dietary recalls were also kept on Tuesday, Wednesday and Thursday of each week, but not dietary requirements were imposed.
# (§6) The lifting sessions were designed to exercise mainly the largest muscles of the body, that is, arm, leg, abdominals and back. All lifting sessions were preceded by warm-up sets of 20 repetitions at low weights. After week 4, the weight to be lifted was increased when the subject was able to do the maximum number of reps for all three sets. There was a 2-minute rest between each set and a 5 minute rest between each exercise. The lifting sessions were as follows:
# (§7) Following the training period of 10 weeks, the subjects were tested as for the pre-testing procedure. […]
# [4] = Underwater weight test (hydrostatic weighing), % body fat, before and after 10 weeks of weight training with supplementation
# Procedure: as §1, §2, §3, §5, §6, §7
# [5] = group average of four subjects, post compared to pre-training
# [6] = individual subjects, after 10 weeks of weight training, 5 gm before and after each session
# [7] = individual subjects, post training compared to pre-training
# [8] = individual subjects, pre-training baseline
smiles,measurement,setting,value
"O=C[C@H](O)[C@H](O)[C@H](O)CO [Ribose, D-Ribose]",Average increase in body weight,[1],3.4 pounds
same,Increase in 1 RM Squat re-test,[2]; placebo group 12 pounds,45.5 pounds
same,Increase in weight lifted once in the bench press (1RM),[2]; placebo group improved by 10 pounds,10.5 pounds
same,"Skinfold Test, % Body Fat, Difference, Average",[3]; [5],−3.1%
same,"Skinfold Test, % Body Fat, Post",[3]; [6],26.2% and 14.2% and 18.0% and 11.5%
same,"Skinfold Test, % Body Fat, Difference",[3]; [7],−2.8% and −2.4% and −3.7% and −3.3%
same,"Skinfold Test, % Body Fat, Pre",[3]; [8],29.0% and 16.6% and 21.7% and 14.8%
same,Decrease in subcutaneous body fat (skinfold test) compared with placebo,"[3]; ten week period, in words",greater decrease in body fat
same,"Underwater Weight Test, % body fat, Difference, Average",[4]; [5],−1.3%
same,"Underwater Weight Test, % body fat, Post",[4]; [6],18.5% and 23.6% and 12.5% and 27.8%
same,"Underwater Weight Test, % body fat, Difference",[4]; [7],+0.8% and −1.1% and −5.0% and −21.9%
same,"Underwater Weight Test, % body fat, Pre",[4]; [8],17.7% and 22.5% and 17.5% and 29.7%
same,Decrease in total body fat (underwater weight test) compared with placebo,"[4]; ten week period, in words",greater decrease in body fat
